Assay results from a melting point compilation (Tetko et al.; mined from patent text by program, amines drawn as free bases though some values may be those of a salt).
Residues, ends and D or L forms follow the SMILES beside them. *: point of attachment. Cbz = O=C(OCc1ccccc1)*

| melting point | SMILES |
| --- | --- |
| 83 to 85 °C | COC(=O)Cc1ccc2c(c1)C(C)(C)CCC2(C)C |
| 56 to 57 °C | CCOC(=O)CC(=O)Nc1sc(CC)cc1C(=O)c1ccccc1Cl |
| 81 to 83 °C | CCOC(=O)C1=C(COCc2ccc(CN(C)C)s2)NC(C)=C(C(=O)OC)C1c1ccccc1Cl (configuration not stated) |
| 143 to 144 °C | CCOC(NC(=O)c1cccc(OC)c1)C(N)=O (configuration not stated) |
| 70 to 75 °C | CC(=O)N1CCc2c(sc(C)c2CCN2CCC(c3noc4cc(F)ccc34)CC2)C1 |
| 69 to 70 °C | CCN(CC)CCc1nc(Cn2cnc3c2c(=O)n(C)c(=O)n3C)no1 |
| 54 to 56 °C | COC1=CC(=O)OC1=C(COC(C)=O)C(C)C(C)=O (configuration not stated) |
| 112 to 114 °C | COC(=O)C(C)(C)C(=O)OCOC1=C(C(=O)Nc2ccccn2)N(C)S(=O)(=O)c2ccccc21 |
| 42 to 44 °C | CCCc1cnc2c(c1)C(=O)OC2=O |
| 163 to 165 °C | COC(=O)C(C)NC(=O)Cc1cc(C)c(C(=O)c2ccc(Cl)cc2)n1C (configuration not stated) |
| 169 to 170 °C | COc1cc2ccnc(C(S)(C#N)CCC(=O)O)c2cc1OC (configuration not stated) |
| 153 to 157 °C | CC(C)(C)Nc1nc(Cl)cc(N2CCCC2)n1 |
| 84 to 85 °C | CCOC(=O)Cc1nc(-c2ccccc2)oc1-c1ccoc1 |
| 185 to 187 °C | CN(Cc1cc2ccccc2n1C)C(=O)/C=C/c1ccc(N2C(=O)CCC2=O)nc1 |
| 127 to 128 °C | COc1ccc(OCC(O)CNC(C)(C)C)c(C2=NNC(=O)CC2)c1 (configuration not stated) |
| 97 to 98 °C | CCN(CC)C(=O)O[C@@H]1[C@@H](c2ccccc2)Nc2c(ccn3c(C)c(C)nc23)[C@H]1OC |
| 191 to 193 °C | COC(=O)C(CC(C)C)NC(=O)C(CC(N)=O)NC(=O)OCc1ccccc1 (stereo not drawn) (Cbz-Asn-Leu-OMe; configuration not given here) |
| 218 to 219 °C | Cc1c(C(=O)Nc2ccc(N3CCNCC3)c(C#N)c2)cnn1-c1ccc(F)cc1 |
| 142 °C | CCc1cc(Cl)c(NC(C)=O)c(Cl)n1 |
| 225 to 227 °C | COC(=O)C(Cc1ccccc1)NC(=O)C(N)(CC(=O)O)C(=O)N1CCCCC1 (configuration not stated) |
| > 320 °C | CC/C=C\Cn1c(=S)sc2c(=O)[nH]c(N)nc21 |
| 91 °C | CCOC(=O)C1C(=O)C=C(c2ccc(OCC(=O)O)c(Cl)c2Cl)CC1c1ccccc1 (configuration not stated) |
| 289 to 291 °C | CC(C)(C)c1ccc(-c2ccc3c(c2)C=C(C(=O)O)CCS3(=O)=O)cc1 |
| 186 to 195 °C | COC(=O)c1cc(-c2ccc(-c3ccccc3)cc2)nn(CC(C)C)c1=O |
| 251 °C | CCOC(=O)C(=O)Nc1ccc(C(=O)O)cc1NC(=O)C(=O)OCC |
| 156 to 158 °C | COc1cccc(NC(=O)c2ccccc2[N+](=O)[O-])c1 |

| melting point | SMILES |
| --- | --- |
| 131 to 134 °C | CCCCCCS(=O)(=O)c1nn2c(=O)cc(-c3ccccc3)nc2s1 |
| 131 °C | Cc1cccc(C)c1NC(=O)CCCl |
| 125 to 129 °C | COc1cccc(C=NNc2ncc(COc3cccc(C(=O)Nc4ccc(C(C)C)c(C)c4)c3)c3ccccc23)c1 |
| 151 to 153 °C | O=C(O)CCCCCCc1ncsc1C(=O)O |
| 205 to 210 °C | CC(C)(C)c1cccc(C(=O)Nc2ccccc2C(=O)NCCc2ncc[nH]2)c1 |
| 88 to 90 °C | COC(=O)c1cncc(NC(=O)C(C)CSC(C)=O)c1 (configuration not stated) |
| 135 to 136 °C | CC(C)(C)Oc1ccc(C(=O)NCCCCCCCNC(=O)c2ccc(OC(C)(C)C)cc2)cc1 |
| 142 to 143 °C | CN(C)C(=O)CNc1ccncc1[N+](=O)[O-] |
| 46 to 47 °C | CCC(O)(c1ccc(OCCN(C(C)C)C(C)C)cc1)c1ccccc1OC (configuration not stated) |
| 117 °C | Cc1cc(OCCc2nc(-c3ccccc3)oc2C)ccc1OC(C)(C)C(=O)O |
| 115 to 119 °C | C[C@H](NS(=O)(=O)c1ccc2c(Cl)cnc(Cl)c2c1)C(=O)OC(C)(C)C |
| > 230 °C | Cc1cc(C)c(C2C(=O)C(Cc3ccc(Cl)cc3)N(C)C2=O)c(C)c1 (configuration not stated) |
| 196 to 198 °C | CCCc1nc2c(N)nc3ccccc3c2n1CC(C)(C)CC(C)=NOC |
| 136 to 138 °C | CCOC1CCCC(C2NC(=O)C2C(C)O[Si](C)(C)C(C)(C)C)C1O (configuration not stated) |
| 122 to 124 °C | CCOC(=O)NNC(=O)Cc1noc(C)n1 |
| 293 °C | Cc1ccc(N2C(=O)C(Cl)=C(C(=O)c3ccc(C(C)C)cc3)C2c2ccc(OC(F)(F)F)cc2)nn1 (configuration not stated) |
| 147 to 150 °C | CCc1oc2ccc(C)cc2c1C(=O)c1ccc(Cl)c(S(N)(=O)=O)c1 |
| 120 to 122 °C | CC(C)(CO)C(O)C(=O)NCc1cccnc1 (configuration not stated) |
| 190 to 192 °C | CCOC(=O)c1cnn2c(O)cc(-c3ccc(Cl)cc3)nc12 |
| 178 to 180 °C | CCCn1c(COCC)nc2c(N)nc3ccc(OCCNS(C)(=O)=O)cc3c21 |
| 110 to 111 °C | COc1ccc(C2(O)c3cc(NC(=O)CC(C)(C)C)c(C)c(C)c3OC2(C)C)cc1 (configuration not stated) |
| 125 to 127 °C | C=CCOCc1c(CN(C)C[C@@H](O)c2ccccn2)sc2c(=O)c(C(=O)NCc3ccc(Cl)cc3)cn(C)c12 |
| 43 to 45 °C | CCCC[C@H](NC(=O)OC(C)(C)C)C(=O)CSCc1ccsc1 |
| 156 °C | CCOC(=O)C(O)=CC=C(SC)C(=O)c1ccc(O)c(O)c1 |
| 98 °C | CCC(C)(C)NC(=O)n1nc(C)n(NC)c1=O |

Further lines, the compound ahead of its results:

| SMILES | melting point |
| --- | --- |
| COC(=O)N(C1c2ccccc2-c2ccccc21)[C@H]1[C@H](C(=O)O)C[C@H]2C[C@@H]1C2(C)C | 155 to 157 °C |
| Cc1c2c(c(Br)n1C)NC(=O)CN=C2c1ccccc1 | 200 to 202 °C |
| O=[N+]([O-])C=C1NCCN1Cc1ccno1 | 156 to 158 °C |
| COC(=O)CCNc1ccccc1CNC(=O)C1Cc2ccccc2N1S(=O)(=O)c1ccc(-c2ccc(F)cc2Cl)cc1 (configuration not stated) | 70 to 73 °C |
| O=C(C=Cc1ccc(OCc2ccccc2)c([N+](=O)[O-])c1)Nc1ccc(Cl)cc1Cl | 152 to 153 °C |
| Nc1c2c(nc3cc(C(F)(F)F)ccc13)CCSC2 | 253 to 259 °C |
| O=C(NCCCN1CCN(Cc2ccc(Cl)cc2)CC1)Nc1ccccc1 | 135 to 137 °C |
| CC1SC(=O)NN=C1c1ccc2c(c1)C(C)(C)CC(=O)N2 (configuration not stated) | 288 °C |
| Clc1cccc(Cl)c1CN1CCNc2ncc(I)cc21 | > 200 °C |
| COc1cc(N)c2nc(OCc3ccc(Cl)cc3)ccc2c1 | 124 to 125 °C |
| CC1Cn2c(nc3c(c2=O)CCCC3)-c2[nH]c3ccccc3c21 (configuration not stated) | 220 to 221 °C |
| CC1(C)CC2(CC(C)(C)c3ccc(Oc4cccc(N)c4)cc32)c2cc(Oc3cccc(N)c3)ccc21 | 206 °C |
| O=C(O)c1cc2nc(C(F)(F)F)ccc2n1Cc1cccc(F)c1 | 254 to 255 °C |
| OCc1ccc(-c2ccccc2)cc1Cl | 69 to 70 °C |
| O=C1C(=CN2CCOCC2)c2ccccc2N1c1cccc(Cl)c1 | 130 to 132 °C |
| CNCc1ccc2c(Br)c(OC)ccc2c1 | 41 to 45 °C |
| COc1cc(-c2cc3c(Cl)ccnc3[nH]2)cc(OC)c1OC | 188 to 190 °C |
| c1ccc(N2CCN(CCCCc3cccnc3)CC2)nc1 | 54 to 64 °C |
| BrC/C(=C(\CBr)c1ccccc1)c1ccccc1 | 98 °C |
| Cc1nc(-c2ccc(C(F)(F)F)cc2)sc1Sc1ccc(Cc2nn[nH]n2)cc1 | 177 °C |
| Nc1c(Br)cc(C2=NNC(=O)CC2)cc1Br | 212 to 214 °C |
| O=[N+]([O-])C(=Cc1ccco1)C1=NCCN1Cc1ccc(Cl)nc1 | 157 to 162 °C |
| COc1ccccc1NS(=O)(=O)c1ccc([N+](=O)[O-])cc1 | 96 to 98 °C |

| SMILES | melting point |
| --- | --- |
| FC(F)C(F)(F)Oc1cccc(Nc2nccc(-c3cncc4ccccc34)n2)c1 | 158 to 160 °C |
| O=C(CCl)NCc1c(O)c(I)cc2c1CCCC2 | 119 to 125 °C |
| Cc1ccc(S(=O)(=O)N(C)c2ccccc2[N+](=O)[O-])cc1 | 132 °C |
| CS(=O)(=O)c1ccc(-c2cc(C(CCCO[N+](=O)[O-])=NO)nn2C2CCCCC2)cc1 | 121 to 123 °C |
| O=S(=O)(Nc1ncnc(OCCO)c1-c1cccc(Cl)c1)c1ccc(Cl)cc1 | 178 to 180 °C |
| CCCC1(CCC)c2ccccc2-c2cc3c(cc21)OCN3c1c(O)ccc2oc3ccccc3c12 | 304 to 305 °C |
| O=C(Nc1cccc(Cl)c1)Nc1cnnc(Cl)c1 | 240 to 248 °C |
| NS(=O)(=O)c1ccc(-c2cccc(-c3nc(-c4ccc(Cl)c(Cl)c4)cc(C(F)(F)F)n3)c2)s1 | 203 °C |
| O=S(=O)(c1ccc(C(F)(F)F)cc1)N1c2cc(F)c(F)cc2-c2[nH]ncc2[C@H]1C1CC1 | 137 to 138 °C |
| Cc1c(F)cccc1C(=O)Nc1ccc(C(=O)N2Cc3ccnn3Cc3ccccc32)cc1 | 245 to 250 °C |
| O=c1nc(-c2cccc(S(=O)CCc3ccccc3)n2)sc2ccccc12 (configuration not stated) | 164 to 166 °C |
| N#Cc1ccc(-c2oncc2CCCO)cc1 | 82 to 83 °C |
| COc1cc(CNc2nc(NCCc3ccccn3)nc3ncccc23)cc(OC)c1 | 157 to 158 °C |
| O=C(O)C(=O)CC(=O)c1cn(CCCCc2ccccc2)c2ccccc2c1=O | 136 to 138 °C |
| COc1cc(C(O)C#Cc2cnc(N)nc2N)cc(OC)c1OC (configuration not stated) | 203 to 205 °C |
| O=[N+]([O-])c1ccc(CO)c(Cl)c1 | 62 to 64 °C |
| O=Cc1ccc(OC(F)F)c(OCC2CC2)c1 | 115 to 116 °C |
| C=C1N(C)C(=O)OC12CCN(CC=C(c1ccccc1)c1ccccc1)CC2 | 126 to 127 °C |
| C#CCNc1nc(N(C2CC(C)(C)N(O)C(C)(C)C2)C2CC(C)(C)N(O)C(C)(C)C2)nc(N(C2CC(C)(C)N(O)C(C)(C)C2)C2CC(C)(C)N(O)C(C)(C)C2)n1 | 249 to 252 °C |
| COc1ccc2cccc(C(CO)CNC(=O)C(F)(F)F)c2c1 (configuration not stated) | 138 to 140 °C |
| CCCCCCCCOc1cc(-c2cccc([N+](=O)[O-])c2)c(OCC(=O)O)c(-c2cccc([N+](=O)[O-])c2)c1 | 129 to 132 °C |
| Clc1ccc(Cc2nc(-c3ccccc3)nnc2NCCN2CCCCC2)cc1 | 192 °C |
| O=C(Nc1nc2ccc(Sc3cnc4ncc(NCc5ccccc5)cn34)cc2s1)C1CC1 | > 260 °C |
